Target: Tyrosine-protein kinase JAK2 (Homo sapiens, UniProt O60674)
Experiment: Inhibition of recombinant GST tagged JAK2 after 60 mins by Caliper mobility shift assay

Chain of Tyrosine-protein kinase JAK2 (O60674 whole entry): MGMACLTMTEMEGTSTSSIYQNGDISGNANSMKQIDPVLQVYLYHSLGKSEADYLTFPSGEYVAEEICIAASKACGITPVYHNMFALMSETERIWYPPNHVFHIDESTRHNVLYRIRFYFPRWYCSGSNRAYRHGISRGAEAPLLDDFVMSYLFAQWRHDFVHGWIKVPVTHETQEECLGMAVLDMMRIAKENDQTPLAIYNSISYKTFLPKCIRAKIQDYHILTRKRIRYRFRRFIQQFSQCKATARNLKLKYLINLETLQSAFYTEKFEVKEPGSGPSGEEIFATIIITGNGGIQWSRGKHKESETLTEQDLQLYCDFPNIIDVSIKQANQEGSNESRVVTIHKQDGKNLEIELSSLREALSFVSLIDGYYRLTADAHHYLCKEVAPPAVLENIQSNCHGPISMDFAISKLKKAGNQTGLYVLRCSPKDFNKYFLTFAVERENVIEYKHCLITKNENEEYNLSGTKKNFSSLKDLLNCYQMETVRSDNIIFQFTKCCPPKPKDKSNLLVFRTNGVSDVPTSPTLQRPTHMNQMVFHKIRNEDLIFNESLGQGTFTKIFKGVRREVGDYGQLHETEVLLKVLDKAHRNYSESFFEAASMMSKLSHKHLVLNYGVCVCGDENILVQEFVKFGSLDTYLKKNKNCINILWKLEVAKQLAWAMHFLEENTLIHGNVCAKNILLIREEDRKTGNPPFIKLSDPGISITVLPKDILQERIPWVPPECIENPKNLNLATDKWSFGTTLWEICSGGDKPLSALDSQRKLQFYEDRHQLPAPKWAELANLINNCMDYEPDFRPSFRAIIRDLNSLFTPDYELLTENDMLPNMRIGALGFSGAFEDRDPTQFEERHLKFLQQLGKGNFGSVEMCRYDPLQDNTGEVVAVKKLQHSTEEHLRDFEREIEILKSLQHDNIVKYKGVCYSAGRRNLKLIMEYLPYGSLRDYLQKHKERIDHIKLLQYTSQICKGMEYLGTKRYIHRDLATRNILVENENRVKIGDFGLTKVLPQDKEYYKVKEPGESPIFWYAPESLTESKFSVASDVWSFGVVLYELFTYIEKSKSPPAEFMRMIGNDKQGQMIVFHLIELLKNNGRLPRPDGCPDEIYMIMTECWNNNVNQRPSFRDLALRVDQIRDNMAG

COc1cc(Nc2ncc3ccn(-c4ccccn4)c3n2)cc(OC)c1OC
IC50: 5.9 nM

— ChEMBL document CHEMBL1155411, “Design of two new chemotypes for inhibiting the Janus kinase 2 by scaffold morphing” (Bioorg Med Chem Lett, 2010)
